Drawing on patent publication US10821104B2, “Five-membered heterocyclic amides WNT pathway inhibitor” (SUZHOU SINOVENT PHARMACEUTICALS CO., LTD., priority 2015, dated 2020), this text covers IC50 for 22 compounds.

Like-named read-outs stand apart in the source and are kept apart here. Some results are limits rather than exact numbers.

In assay [1] the test system is zebrafish axis formation. Put plainly: Effect of compounds on axis formation of zebrafish (zebrafish phenotype screening). Particulars: embryos treated from 3 h to 48 h post fertilization, concentration at which 50% of axis formation is inhibited, read-out: IC50, inhibition of axis formation of zebrafish. Type of assay: in vivo, Zebrafish Danio rerio. On the procedure:
Method: Zebrafish embryos were collected after natural spawning. Embryos were treated from the 16 cell stage (3 hours post fertilization) with different concentration series 100 μM˜0.001 μM of the compound in 1% DMSO/fish water or with DMSO equivalent. The zebrafish were placed in a 6-well microplate at a density of 20 zebrafish per well with 3 mL of fish water. Zebrafish were incubated at 28.5° C. in the dark until 48 h post fertilization, then anesthetized, and imaged under a dissecting stereomicroscope installed with a high-speed video camera (JVC, Japan). Quantitative length of axis was performed with NIS-Elements D 3.1 soft and pixels data were expressed as mean±SEM. The effect of compound on axis formation of zebrafish was calculated based on the following formula: Inhibition on axis growth (%)=[1−Pixel(compound)/Pixel(vehicle)]×100%
(§1) Inhibition curves were generated using GraphPad Prism 6.0 (GraphPad Software Inc., San Diego Calif.) and IC50 was determined with logistic regression.

Assay [2] deals with Wnt/β-catenin reporter (Super 8×TOPFLASH) in HEK293 cells cocultured with L-Wnt3a-expressing cells. Kind of assay: 293T/TOPLUC-Wnt3a luciferase reporter gene assay. Type of assay: cell-based. Conditions: read-out: IC50, inhibition of Wnt/β-catenin reporter gene readout. On the procedure: In this assay, HEK293 cells harboring a luciferase-based Wnt/β-catenin reporter (Super 8×TOPFLASH) were cocultured with L-Wnt3a-expressing cells. 293T/TOPLUC-Wnt3a were incubated with small molecules for 24 h. The level of the Luciferase reporter gene was used as an indicator for Wnt ligand-driven, LEF/TCF-dependent transcriptional activities. IC50 is defined as the compound concentration at which 50% of luciferase reporter activity is inhibited.
Results: REX-P compounds were investigated on CrownBio Cell plateform to assay the activity of inhibiting Wnt/β-catenin reporter activity, results are shown in Table 3.
In general terms: Reporter assays use an easily measured gene product as a stand-in for the process of interest.

Assay [3] has as its system regeneration of zebrafish tailfin resected. Kind of assay: Effect of compounds on tailfin regeneration of zebrafish (resected caudal fin). Format: in vivo. Conditions: Danio rerio; 3 d.p.f. zebrafish with resected caudal fins treated until 7 d.p.f.; read-out: IC50, inhibition of regeneration of zebrafish tailfin resected. On the procedure:
Method: Three days post fertilization (d.p.f) zebrafish with resected caudal fins were placed in water containing 1% DMSO carrier or compounds (10 μM˜0.001 μM) until 7 d.p.f. The zebrafish were placed in a 6-well microplate at a density of 15 zebrafish per well with 3 mL of fish water. Zebrafish were incubated at 28.5° C. in the dark until 7 d.p.f., then anesthetized, and imaged under a dissecting stereomicroscope installed with a high-speed video camera (JVC, Japan). Quantitative length of regeneration of tailfin was performed and pixels data were expressed as mean±SEM. The effect of compound on regeneration of tailfin of zebrafish was calculated based on the following formula: Drug inhibition on regeneration of tailfin (%)=[1−Pixel(compound)/Pixel(vehicle)]×100%.
as §1

Where [4] appears, read: Homo sapiens, HEK293, 24 h incubation.

Consider `Cc1cc(-c2ncc(CNC(=O)c3nnc(-c4cccc(Cl)c4)s3)cc2C)ccn1` [REX-P-45, 5-(3-chlorophenyl)-N-((2′,3-dimethyl-[2,4′-bipyridin]-5-yl)methyl)-1,3,4-thiadiazole-2-carboxamide], for which the IC50 worked out at 14 nM in assay [1] (Danio rerio), 0.31 nM in assay [2] (setting [4]) and 23 nM in assay [3].

`Cc1cc(-c2ncc(CNC(=O)c3cc(-c4ccccc4)[nH]n3)cc2C)ccn1` [REX-P-2, N-((2′,3-dimethyl-[2,4′-bipyridin]-5-yl)methyl)-5-phenyl-1H-pyrazole-3-carboxamide]: the figures for the IC50 in assay [1] (Danio rerio), in assay [2] (setting [4]) and in assay [3] were 8230 nM, 1.76 nM and 3910 nM, respectively.

As to `Cc1cc(-c2ncc(CNC(=O)c3nnc(-c4cccc(F)c4)s3)cc2C)ccn1` [REX-P-46, N-((2′,3-dimethyl-[2,4′-bipyridin]-5-yl)methyl)-5-(3-fluorophenyl)-1,3,4-thiadiazole-2-carboxamide], the values for the IC50 in assay [1] (Danio rerio), in assay [2] (setting [4]) and in assay [3] were 10 nM, 0.125 nM and 16 nM, respectively.

Regarding `Cc1cc(-c2ncc(CNC(=O)c3nnc(-c4ccccn4)s3)cc2C)ccn1` [REX-P-47, N-((2′,3-dimethyl-[2,4′-bipyridin]-5-yl)methyl)-5-(pyridin-2-yl)-1,3,4-thiadiazole-2-carboxamide], the IC50 in assay [1] (Danio rerio) is 163 nM; in assay [2] (setting [4]), 0.673 nM; in assay [3] it was 207 nM.

`Cc1cc(-c2ncc(CNC(=O)c3nc(-c4ccccc4)cs3)cc2C)ccn1` [REX-P-6, N-((2′,3-dimethyl-[2,4′-bipyridin]-5-yl)methyl)-4-phenylthiazole-2-carboxamide]: the IC50 in assay [1] (Danio rerio) was > 100000 nM; in assay [2] (setting [4]) it was > 1000 nM.

With `Cc1cc(-c2ncc(CNC(=O)c3nnc(-c4ncccc4C)s3)cc2C)ccn1` [REX-P-56, N-((2′,3-dimethyl-[2,4′-bipyridin]-5-yl)methyl)-5-(3-methylpyridin-2-yl)-1,3,4-thiadiazole-2-carboxamide], in assay [1] (Danio rerio), the IC50 came out at 62 nM.

For `Cc1cc(-c2ncc(CNC(=O)c3cc(-c4ccccn4)[nH]n3)cc2C)ccn1` [REX-P-16, N-((2′,3-dimethyl-[2,4′-bipyridin]-5-yl)methyl)-5-(pyridin-2-yl)-1H-pyrazole-3-carboxamide], the IC50 in assay [1] (Danio rerio) is > 10000 nM; in assay [2] (setting [4]) it was 16.8 nM.

Take `Cc1cc(-c2ncc(CNC(=O)c3nnc(-c4cncc(F)c4)s3)cc2C)ccn1` [REX-P-49, N-((2′,3-dimethyl-[2,4′-bipyridin]-5-yl)methyl)-5-(5-fluoropyridin-3-yl)-1,3,4-thiadiazole-2-carboxamide]: the IC50 is 52 nM in assay [1] (Danio rerio), 0.248 nM in assay [2] (setting [4]) and 137 nM in assay [3].

As for `Cc1cc(-c2ncc(CNC(=O)c3nnc(-c4ccccc4)s3)cc2C)ccn1` [REX-P-8, N-((2′,3-dimethyl-[2,4′-bipyridin]-5-yl)methyl)-5-phenyl-1,3,4-thiadiazole-2-carboxamide], the figures for the IC50 in assay [1] (Danio rerio), in assay [2] (setting [4]) and in assay [3] were 21 nM, 1.92 nM and 27 nM, respectively.

Consider `Cc1cc(-c2ncc(CNC(=O)c3ncc(-c4cccc(Cl)c4)s3)cc2C)ccn1` [REX-P-12, 5-(3-chlorophenyl)-N-((2′,3-dimethyl-[2,4′-bipyridin]-5-yl)methyl)thiazole-2-carboxamide], for which the IC50 in assay [1] (Danio rerio) was > 100000 nM; in assay [2] (setting [4]), 9.16 nM.

Regarding `Cc1cc(-c2ncc(CNC(=O)c3ncc(-c4ccccc4)s3)cc2C)ccn1` [REX-P-4, N-((2′,3-dimethyl-[2,4′-bipyridin]-5-yl)methyl)-5-phenylthiazole-2-carboxamide], the IC50 in assay [1] (Danio rerio) was 36.9 nM; in assay [2] (setting [4]), < 0.1 nM.

For `Cc1cc(-c2ncc(CC(=O)Nc3ccc(-c4cnccn4)cn3)cc2C)ccn1` [LGK-974, reference compound], the figures for the IC50 in assay [1] (Danio rerio), in assay [2] (setting [4]) and in assay [3] were 583 nM, 0.574 nM and 462 nM, respectively.

As to `Cc1cc(-c2ncc(CNC(=O)c3nnc(-c4ncccc4F)s3)cc2C)ccn1` [REX-P-48, N-((2′,3-dimethyl-[2,4′-bipyridin]-5-yl)methyl)-5-(3-fluoropyridin-2-yl)-1,3,4-thiadiazole-2-carboxamide], the IC50 in assay [1] (Danio rerio) was found to be 896 nM; in assay [3] it was 721 nM.

Turning to `Cc1cc(-c2ncc(CNC(=O)c3nnc(-c4cnccn4)s3)cc2C)ccn1` [REX-P-52, N-((2′,3-dimethyl-[2,4′-bipyridin]-5-yl)methyl)-5-(pyrazin-2-yl)-1,3,4-thiadiazole-2-carboxamide], the IC50 worked out at 640 nM in assay [1] (Danio rerio), 1.38 nM in assay [2] (setting [4]) and 746 nM in assay [3].

For “5-(4-chlorophenyl)-N-((2′,3-dimethyl-[2,4′-bipyridin]-5-yl)methyl)thiazole-2-carboxamide [REX-P-13]”, the IC50 in assay [1] was > 10000 nM; in assay [2] (24 h incubation), > 1000 nM.

Consider `Cc1cc(-c2ncc(CNC(=O)c3cc(-c4ccccc4)nn3C)cc2C)ccn1` [REX-P-1, N-((2′,3-dimethyl-[2,4′-bipyridin]-5-yl)methyl)-1-methyl-3-phenyl-1H-pyrazole-5-carboxamide], for which the IC50 in assay [1] (Danio rerio) worked out at 29900 nM; in assay [2] (setting [4]), 92.6 nM.

With `Cc1cc(-c2ncc(CNC(=O)c3nnc(-c4ncccn4)s3)cc2C)ccn1` [REX-P-51, N-((2′,3-dimethyl-[2,4′-bipyridin]-5-yl)methyl)-5-(pyrimidin-2-yl)-1,3,4-thiadiazole-2-carboxamide], the IC50 in assay [1] (Danio rerio) is > 10000 nM.

In the case of `Cc1cc(-c2ncc(CNC(=O)c3cnc(-c4cccc(Cl)c4)s3)cc2C)ccn1` [REX-P-22, 2-(3-chlorophenyl)-N-((2′,3-dimethyl-[2,4′-bipyridin]-5-yl)methyl)thiazole-5-carboxamide], the IC50 in assay [1] (Danio rerio) was found to be 178 nM; in assay [2] (setting [4]), 0.72 nM; in assay [3], 28 nM.

`Cc1cc(-c2ncc(CNC(=O)c3cnc(-c4ccccc4)s3)cc2C)ccn1` [REX-P-3, N-((2′,3-dimethyl-[2,4′-bipyridin]-5-yl)methyl)-2-phenylthiazole-5-carboxamide]: the IC50 was 144 nM in assay [1] (Danio rerio), < 0.1 nM in assay [2] (setting [4]) and 84 nM in assay [3].

On to `Cc1cc(-c2ncc(CNC(=O)c3nnc(-c4cccc(C)n4)s3)cc2C)ccn1` [REX-P-50, N-((2′,3-dimethyl-[2,4′-bipyridin]-5-yl)methyl)-5-(6-methylpyridin-2-yl)-1,3,4-thiadiazole-2-carboxamide], for which the IC50 amounted to 64 nM in assay [1] (Danio rerio), 0.389 nM in assay [2] (setting [4]) and 111 nM in assay [3].

As to `Cc1cc(-c2ncc(CNC(=O)c3csc(-c4ccccc4)n3)cc2C)ccn1` [REX-P-5, N-((2′,3-dimethyl-[2,4′-bipyridin]-5-yl)methyl)-2-phenylthiazole-4-carboxamide], the IC50 was > 40000 nM in assay [1] (Danio rerio) and > 1000 nM in assay [2] (setting [4]).

Consider `Cc1cc(-c2ncc(CNC(=O)c3cc(-c4ccccc4)n(C)n3)cc2C)ccn1` [REX-P-9, N-((2′,3-dimethyl-[2,4′-bipyridin]-5-yl)methyl)-1-methyl-5-phenyl-1H-pyrazole-3-carboxamide], for which the IC50 in assay [1] (Danio rerio) is > 20000 nM; in assay [2] (setting [4]), > 1000 nM.
